Measured values from ChEMBL document CHEMBL3603760, “Potential therapeutic agents for circulatory diseases from Bauhinia glauca Benth.subsp. pernervosa. (Da Ye Guan Men)” (Bioorg Med Chem Lett, 2015).
Calls of active or inactive are those of the source. The calls are words filed in the database; no cut-off is given here.

Tested on: not listed separately
Experiment: Anti-platelet activity in rat platelet rich plasma assessed as inhibition of ADP and calcium-induced platelet aggregation at 1650 uM incubated at 37 degC for 10 mins and measured 30 mins after ADP and calcium addition
Type: functional

| SMILES | inhibition at 1650 µM [%] |
| --- | --- |
| CC(=O)Oc1ccccc1C(=O)O [ASPIRIN] | 41.5 |

Tested on: Platelet
Experiment: Potency index, ratio of anti-platelet activity for aspirin to test compound in rat platelet rich plasma
Type: functional

| SMILES | Ratio |
| --- | --- |
| COc1cc(-c2cc(=O)c3c(O)cc(O)cc3o2)ccc1O [CHRYSOERIOL] | 2 |

Tested on: not listed separately
Experiment: (§1) Anti-platelet activity in rat platelet rich plasma assessed as inhibition of ADP and calcium-induced platelet aggregation at 100 uM pre-incubated at 37 degC for 10 mins and measured 30 mins after ADP and calcium addition
Type: functional

| SMILES | inhibition at 100 µM [%] |
| --- | --- |
| C[C@@H]1O[C@@H](Oc2c(-c3ccc(O)c(O)c3)oc3cc(O)cc(O)c3c2=O)[C@H](O)[C@H](O)[C@H]1O [QUERCITRIN] | 2.13 |
| O=C(O)/C=C/c1ccccc1 [CINNAMIC ACID] | 8.69 |
| COc1cc(O[C@@H]2O[C@H](COC(=O)c3cc(O)c(O)c(O)c3)[C@@H](O)[C@H](O)[C@H]2O)ccc1O | 22.1 |
| O=c1c(O[C@@H]2OC[C@H](O)[C@H](O)[C@H]2O)c(-c2ccc(O)c(O)c2)oc2cc(O)cc(O)c12 [GUAJAVERIN] | 7.29 |
| O=C1C[C@@H](c2ccc(O)c(O)c2)Oc2cc(O)cc(O)c21 [ERIODICTYOL] | 24.5 |
| Cc1c(O)cc2oc(-c3ccc(O)cc3)c(O)c(=O)c2c1O | 26 |
| O=c1c(O[C@@H]2O[C@H](CO)[C@@H](O)[C@H](O)[C@H]2O)c(-c2ccc(O)c(O)c2)oc2cc(O)cc(O)c12 [ISOQUERCETIN] | 36.2 |
| COc1c(O)cc(C=O)cc1O | 20.8 |
| O=c1c(O)c(-c2ccc(O)c(O)c2)oc2cc(O)cc(O)c12 [QUERCETIN] | 16.8 |
| O=c1c(O[C@@H]2O[C@H](CO)[C@H](O)[C@H](O)[C@H]2O)c(-c2ccc(O)c(O)c2)oc2cc(O)cc(O)c12 [HYPEROSIDE] | 35.2 |
| O=c1cc(-c2ccc(O)c(O)c2)oc2cc(O)ccc12 | 13.7 |
| O=c1ccoc2cc(O)cc(O)c12 | 6.83 |
| Oc1cc(O)c2c(c1)O[C@H](c1ccc(O)c(O)c1)[C@@H](O)C2 [CIANIDANOL] | 35.1 |
| COc1cc(-c2cc(=O)c3c(O)cc(O)cc3o2)ccc1O [CHRYSOERIOL] | 92.3 |
| C[C@@H]1O[C@@H](Oc2cc(O)c3c(=O)cc(-c4cc(O)c(O)c(O)c4)oc3c2)[C@H](O)[C@H](O)[C@H]1O | 41.3 |
| O=c1cc(-c2ccc(O)c(O)c2)oc2cc(O)cc(O)c12 [LUTEOLIN] | 26.6 |
| COC(=O)c1cc(O)c(O)c(O)c1 [GALLIC ACID METHYL ESTER] | 16.2 |

Tested on: Platelet
Experiment: as §1
Type: functional

| SMILES | inhibition |
| --- | --- |
| COc1ccc(C(=O)O)cc1O | inactive |
| COc1cc(O[C@@H]2O[C@H](COC(=O)c3cc(O)c(O)c(O)c3)[C@@H](O)[C@H](O)[C@H]2O)cc(O)c1OC | inactive |
| COc1c(-c2ccc(O)c(O)c2)oc2cc(O)ccc2c1=O | inactive |
| O=C(O)c1ccc(O)c(O)c1 | inactive |
| COc1c(-c2ccc(O)c(O)c2)oc2cc(O)cc(O)c2c1=O | inactive |
| Cc1c(O)c(C)c2c(c1O)C(=O)C[C@@H](c1ccc(O)cc1)O2 | inactive |
| COc1cc(-c2oc3cc(O)cc(O)c3c(=O)c2O)ccc1O | inactive |
| COc1c(C)c(O)c2c(=O)c(O)c(-c3ccc(O)cc3)oc2c1C | inactive |
| O=c1c(O)c(-c2ccc(O)cc2)oc2cc(O)cc(O)c12 | inactive |
| C[C@H]1O[C@@H](Oc2c(-c3cc(O)c(O)c(O)c3)oc3cc(O)cc(O)c3c2=O)[C@@H](O)[C@@H](O)[C@@H]1O | inactive |
| O=C(O)c1cc(O)c(O)c(O)c1 | inactive |
| COc1cc(C(=O)O)cc(OC)c1O | inactive |

Tested on: not listed separately
Experiment: Anti-platelet activity in rat platelet rich plasma assessed as inhibition of ADP and calcium-induced platelet aggregation incubated at 37 degC for 10 mins and measured 30 mins after ADP and calcium addition
Type: functional

| SMILES | IC50 [µM] |
| --- | --- |
| COc1cc(-c2cc(=O)c3c(O)cc(O)cc3o2)ccc1O [CHRYSOERIOL] | 27.1 |
